The values below come from ChEMBL document CHEMBL1147835, “A practical synthesis of the major 3-hydroxy-2-pyrrolidinone metabolite of a potent CDK2/cyclin A inhibitor” (Bioorg Med Chem Lett, 2006).

The target of experiment [1] is Cyclin-dependent kinase 2/cyclin A (Homo sapiens, UniProt P24941). Briefly: Inhibition of CDK2/cyclin A. It counts as protein-complex assay.
A further experiment has as its system A2780. In words: Antiproliferative activity against human A2780 cells. It is filed as functional, cell-based.

As usually defined, the IC50 is the concentration that gives 50% inhibition. Read a high IC50 as a need for much substance. `C[C@H](C(=O)Nc1cc(C2CC2)n[nH]1)c1ccc(N2CC[C@@H](O)C2=O)cc1`: the concentration for half-maximal inhibition (IC50) worked out at 27 nM in experiment [1] and 1600 nM in the experiment with A2780.
In the same order, the values of `C[C@H](C(=O)Nc1cc(C2CC2)n[nH]1)c1ccc(N2CC[C@H](O)C2=O)cc1` are 27 nM and 2200 nM.
